ChEMBL document CHEMBL1649168, “Susceptibility of human immunodeficiency virus type 1 to the maturation inhibitor bevirimat is modulated by baseline polymorphisms in Gag spacer peptide 1” (Antimicrob Agents Chemother, 2009)
pIC50: −log10 of the molar value.

How the values were obtained:
[1] = tested on: Human immunodeficiency virus 1; experiment: Antiviral activity against HIV1 PA103 harboring SP1 mutant gene relative to wild type; type: functional
[2] = tested on: Human immunodeficiency virus 1; experiment: Antiviral activity against HIV1 PA105 harboring SP1 mutant gene relative to wild type; type: functional
[3] = tested on: Human immunodeficiency virus 1; experiment: Antiviral activity against HIV1 NL4.3 harboring SP1 Q6A mutant gene relative to wild type; type: functional
[4] = tested on: Human immunodeficiency virus 1; experiment: Antiviral activity against HIV1 PA118 harboring SP1 mutant gene relative to wild type; type: functional
[5] = tested on: Human immunodeficiency virus 1; experiment: Antiviral activity against HIV1 PA119 harboring SP1 mutant gene relative to wild type; type: functional
[6] = tested on: Human immunodeficiency virus 1; experiment: Antiviral activity against HIV1 PA104 harboring SP1 mutant gene relative to wild type; type: functional
[7] = tested on: Human immunodeficiency virus 1; experiment: Antiviral activity against HIV1 HXB2 harboring SP1 mutant gene relative to wild type; type: functional
[8] = tested on: Human immunodeficiency virus 1; experiment: Antiviral activity against HIV1 PA112 harboring SP1 mutant gene relative to wild type; type: functional
[9] = tested on: Human immunodeficiency virus 1; experiment: Antiviral activity against HIV1 HXB2 harboring SP1 T8delta mutant gene relative to wild type; type: functional
[10] = tested on: Human immunodeficiency virus 1; experiment: Antiviral activity against HIV1 NL4.3 harboring SP1 T8delta mutant gene relative to wild type; type: functional
[11] = tested on: Human immunodeficiency virus 1; experiment: Antiviral activity against HIV1 PA102 harboring SP1 mutant gene relative to wild type; type: functional
[12] = tested on: Human immunodeficiency virus 1; experiment: Antiviral activity against HIV1 PA115 harboring SP1 mutant gene relative to wild type; type: functional
[13] = tested on: Human immunodeficiency virus 1; experiment: Antiviral activity against HIV1 NL4.3 harboring SP1 Q6H mutant gene relative to wild type; type: functional
[14] = tested on: Human immunodeficiency virus 1; experiment: Antiviral activity against HIV1 PA108 harboring SP1 mutant gene relative to wild type; type: functional
[15] = tested on: Human immunodeficiency virus 1; experiment: Antiviral activity against HIV1 clinical isolates; type: functional, organism-based
[16] = tested on: Human immunodeficiency virus 1; experiment: Antiviral activity against HIV1 NL4.3 harboring SP1 T8A mutant gene relative to wild type; type: functional
[17] = tested on: Human immunodeficiency virus 1; experiment: Antiviral activity against HIV1 HXB2 harboring SP1 Q6H/T8N mutant gene relative to wild type; type: functional
[18] = tested on: Human immunodeficiency virus 1; experiment: Antiviral activity against HIV1 PA109 harboring SP1 mutant gene relative to wild type; type: functional
[19] = tested on: Human immunodeficiency virus 1; experiment: Antiviral activity against HIV1 NL4.3 harboring SP1 V7M mutant gene relative to wild type; type: functional
[20] = tested on: Human immunodeficiency virus 1; experiment: Antiviral activity against HIV1 HXB2 harboring SP1 V7A mutant gene relative to wild type; type: functional
[21] = tested on: Human immunodeficiency virus 1; experiment: Antiviral activity against HIV1 PA113 harboring SP1 mutant gene relative to wild type; type: functional
[22] = tested on: Human immunodeficiency virus 1; experiment: Antiviral activity against HIV1 PA110 harboring SP1 mutant gene relative to wild type; type: functional
[23] = tested on: Human immunodeficiency virus 1; experiment: Antiviral activity against HIV1 HXB2 harboring SP1 T8N mutant gene relative to wild type; type: functional
[24] = tested on: Human immunodeficiency virus 1; experiment: Antiviral activity against HIV1 PA101 harboring SP1 mutant gene relative to wild type; type: functional
[25] = tested on: Human immunodeficiency virus 1; experiment: Antiviral activity against HIV1 HXB2 harboring SP1 V7A/T8N mutant gene relative to wild type; type: functional
[26] = tested on: Human immunodeficiency virus 1; experiment: Antiviral activity against HIV1 PA111 harboring SP1 mutant gene relative to wild type; type: functional
[27] = tested on: Human immunodeficiency virus 1; experiment: Antiviral activity against HIV1 NL4.3 harboring SP1 A1V mutant gene relative to wild type; type: functional
[28] = tested on: Human immunodeficiency virus 1; experiment: Antiviral activity against HIV1 HXB2 harboring SP1 V7A/T8delta mutant gene relative to wild type; type: functional
[29] = tested on: Human immunodeficiency virus 1; experiment: Antiviral activity against HIV1 PA116 harboring SP1 mutant gene relative to wild type; type: functional
[30] = tested on: Human immunodeficiency virus 1; experiment: Antiviral activity against HIV1 HXB2 harboring SP1 Q6H /V7A/T8N mutant gene relative to wild type; type: functional
[31] = tested on: Human immunodeficiency virus 1; experiment: Antiviral activity against HIV1 NL4.3 harboring SP1 V7delta mutant gene relative to wild type; type: functional
[32] = tested on: Human immunodeficiency virus 1; experiment: Antiviral activity against HIV1 PA107 harboring SP1 mutant gene relative to wild type; type: functional
[33] = tested on: Human immunodeficiency virus 1; experiment: Antiviral activity against HIV1 HXB2 harboring SP1 V7M mutant gene relative to wild type; type: functional
[34] = tested on: Human immunodeficiency virus 1; experiment: Antiviral activity against HIV1 HXB2 harboring SP1 Q6H/V7A mutant gene relative to wild type; type: functional
[35] = tested on: Human immunodeficiency virus 1; experiment: Antiviral activity against HIV1 NL4.3 harboring SP1 V7A mutant gene relative to wild type; type: functional
[36] = tested on: Human immunodeficiency virus 1; experiment: Antiviral activity against HIV1 PA114 harboring SP1 mutant gene relative to wild type; type: functional
[37] = tested on: Human immunodeficiency virus 1; experiment: Antiviral activity against HIV1 NL4.3 harboring SP1 L231M mutant gene relative to wild type; type: functional
[38] = tested on: Human immunodeficiency virus 1; experiment: Antiviral activity against HIV1 HXB2 harboring SP1 Q6H mutant gene relative to wild type; type: functional
[39] = tested on: Human immunodeficiency virus 1; experiment: Antiviral activity against HIV1 NL4.3 harboring SP1 mutant gene relative to wild type; type: functional
[40] = tested on: Human immunodeficiency virus 1; experiment: Antiviral activity against HIV1 HXB2 harboring SP1 Q6H/T8delta mutant gene relative to wild type; type: functional
[41] = tested on: Human immunodeficiency virus 1; experiment: Antiviral activity against HIV1 PA106 harboring SP1 mutant gene relative to wild type; type: functional
[42] = tested on: Human immunodeficiency virus 1; experiment: Antiviral activity against HIV1 PA117 harboring SP1 mutant gene relative to wild type; type: functional
[43] = tested on: Human immunodeficiency virus 1; experiment: Antiviral activity against HIV1 HXB2 harboring SP1 Q6H /V7A/T8delta mutant gene relative to wild type; type: functional
[44] = tested on: Human immunodeficiency virus 1; experiment: Antiviral activity against HIV1 PA100 harboring SP1 mutant gene relative to wild type; type: functional

## C=C(C)[C@@H]1CC[C@]2(C(=O)O)CC[C@]3(C)[C@H](CC[C@@H]4[C@@]5(C)CC[C@H](OC(=O)CC(C)(C)C(=O)O)C(C)(C)[C@@H]5CC[C@]43C)[C@@H]12 [BEVIRIMAT]
[1]
  fold change (FC): >83.2
[2]
  fold change (FC): >125.4
[3]
  fold change (FC): 0.9
[4]
  fold change (FC): >113.7
[5]
  fold change (FC): >106.4
[6]
  fold change (FC): 9.3
[7]
  fold change (FC): 1.7
[8]
  fold change (FC): 1.9
[9]
  fold change (FC): 52.2
[10]
  fold change (FC): 10.9
[11]
  fold change (FC): 5.6
[12]
  fold change (FC): 0.9
[13]
  fold change (FC): 1.9
[14]
  fold change (FC): >116.6
[15]
  pIC50: 8.00
[16]
  fold change (FC): 1.2
[17]
  fold change (FC): >122.5
[18]
  fold change (FC): >125.4
[19]
  fold change (FC): 25.3
[20]
  fold change (FC): >151.4
[21]
  fold change (FC): 2.3
[22]
  fold change (FC): 1.5
[23]
  fold change (FC): 52
[24]
  fold change (FC): >76.1
[25]
  fold change (FC): >157.2
[26]
  fold change (FC): >119.5
[27]
  fold change (FC): >77.5
[28]
  fold change (FC): >130.6
[29]
  fold change (FC): 4.5
[30]
  fold change (FC): >132.3
[31]
  fold change (FC): 65.5
[32]
  fold change (FC): 9.8
[33]
  fold change (FC): >113
[34]
  fold change (FC): >115.1
[35]
  fold change (FC): 45.8
[36]
  fold change (FC): >106.1
[37]
  fold change (FC): 37.6
[38]
  fold change (FC): 2.3
[39]
  fold change (FC): 1.1
[40]
  fold change (FC): >111
[41]
  fold change (FC): >119.5
[42]
  fold change (FC): 1.9
[43]
  fold change (FC): >144.3
[44]
  fold change (FC): >125.4
